In patent US20170360863A1, “USE OF POLYACETYLENIC GLYCOSIDES FOR SUPPRESSION OF GRANULOCYTIC MYELOID-DERIVED SUPPRESSOR CELL ACTIVITIES AND TUMOR METASTASIS” (Academia Sinica, priority 2014, published 2017):

Key:
[1] = system: granulocytic and monocytic MDSCs; experiment: MDSC populations in organs of tumor-resected mice (flow cytometry); format: in vivo, BALB/c mice; settings: 23 days post tumor resection
Excerpt: Lung tissues of test mice were harvested and minced with 150 U/mL Type I Collagenase in tissue grinders for 20 to 50 times. After digestion and lysed with ACK buffer, grinded tissues were collected and filtered through 40 μm cell strainer. Spleen tissues were minced gently with PBS in tissue grinders. After lysed with ACK buffer, cells were collected for further analysis. Blood were lysed with ACK buffer for 3 times and harvested for further analysis. All cells were collected and stained with anti-CD11b, and anti-Ly6G/Ly-6C for flow cytometry analysis.
The myeloid derived suppressor cell (MDSC) populations in spleen tissue of each test group were investigated.
(§1) Mice were sacrificed at 23 days post tumor resection, lung, liver and spleen of test mice were excised and tumor metastasis measured by bioluminescent imaging.

[2] = system: 4T1-luc2 tumor metastasis; experiment: 4T1-luc2 tumor resection model, tumor metastasis; format: in vivo, BALB/c mice; settings: 23 days post tumor resection
Procedure: 4T1-luc2 cells (5×10^5 cells/100 μl PBS) were orthotopically implanted into mammary fat-pad of BALB/c mice. Primary tumor growth was evaluated by measuring tumor weight and by monitoring bioluminescent imaging of mammary tumors (BL1) every 7 days. For tumor resection mouse model, 4T1-luc2 cells (5×10^5 cells/100 μl PBS) were orthotopically implanted into mammary fat pad of test mice. At day 21 post tumor implantation, the tumor mass was gently surgically removed. Bioluminescent imaging of metastatic tumor was monitored by using Non-invasive in vivo imaging system (IVIS). The body weight of the test mouse was approximately 25 g.
For this experiment, at 21 days post orthotopic tumor implantation, the tissue mass of 4T1-luc2 tumors in test mice was surgically removed.
At 21 days post implantation, the tumor mass was surgically removed gently. Following surgery, each treatment group was randomly divided into control, F1 and the docetaxel groups (i.e., via iv injection with 10 mg docetaxel/kg every other 3 days). […] The BLI values for each mouse was quantitatively measured and pooled for each test group.
as §1

Q: Which “4T1 tumor-induced accumulation of granulocytic MDSCs in lung, peripheral blood and spleen” value [1] does the source give for `CC(=O)O[C@@]12CO[C@@H]1C[C@H](O)[C@@]1(C)C(=O)[C@H](O)C3=C(C)[C@@H](OC(=O)[C@H](O)[C@@H](NC(=O)OC(C)(C)C)c4ccccc4)C[C@@](O)([C@@H](OC(=O)c4ccccc4)[C@H]21)C3(C)C` [docetaxel] here?
A: Its value is “significantly reduced”.

Q: And the “tumor metastasis into lung (bioluminescent imaging of excised organs)” value [2]?
A: The value was “effectively inhibited”.

Q: And the “BLI value (bioluminescent imaging, whole body)” value ([2]; BP-E-F1 oral 5 mg/kg/day, docetaxel iv 10 mg/kg every other 3 days)?
A: The value was “effectively reduce”.

Q: What about the metastasis rate ([2]; F1 oral 5 mg/kg/day, docetaxel iv 10 mg/kg every other 3 days) of the same molecule?
A: Its metastasis rate is 12.5%.
